# In ChEMBL document CHEMBL1201862, “PubChem BioAssay data set” (2004):
# Calls of active or inactive are those of the source.
# Tests used:
# [1] = P. falciparum late gametocyte killing, dose response, luminescence (AID 1117278); type: functional, cell-based;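 also: gametocytes exposed to compound for 24 hours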
# [2] = Jurkat T cell cytotoxicity, dose response, cytotoxicity control for P. falciparum gametocyte viability project, luminescence (AID 1117277); type: functional, cell-based;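 also: potency reflects loss of cellular ATP meaning fewer viable cells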
# [3] = Counterscreen for […] of the human trace amine associated receptor 1 (TAAR1): Fluorescence-based cell-based high throughput dose response assay to identify nonselective Ga16 agonists.; type: functional
# [4] = target: T1, Trace amine-associated receptor 1 (Homo sapiens, UniProt Q96RJ0); assay: Fluorescence-based cell-based high throughput dose response assay to identify antagonists of the human trace amine associated receptor 1 (TAAR1).; type: functional
# T1 sequence (Q96RJ0 whole entry): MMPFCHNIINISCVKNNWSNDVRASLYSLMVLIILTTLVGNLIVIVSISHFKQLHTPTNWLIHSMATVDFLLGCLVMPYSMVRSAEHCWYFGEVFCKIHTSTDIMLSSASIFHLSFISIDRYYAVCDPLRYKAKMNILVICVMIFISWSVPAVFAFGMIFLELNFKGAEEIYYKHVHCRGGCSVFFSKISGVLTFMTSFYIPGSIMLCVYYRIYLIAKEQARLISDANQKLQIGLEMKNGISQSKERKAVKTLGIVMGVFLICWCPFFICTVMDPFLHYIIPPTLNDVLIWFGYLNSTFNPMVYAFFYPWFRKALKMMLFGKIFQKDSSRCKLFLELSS
# [5] = Counterscreen for antagonists of the human trace amine associated receptor 1 (hTAAR1): Fluorescence-based cell-based high throughput dose response assay to identify nonselective Ga16 antagonists.; type: functional
# [6] = target: T1, Trace amine-associated receptor 1; assay: Counterscreen for antagonists of the human trace amine associated receptor 1 (hTAAR1): Fluorescence-based cell-based high throughput dose response assay to identify TAAR1 Agonists.; type: functional
# [7] = Luminescence Cell-Based Dose Retest to Confirm Inhibitors of Cancer Stem Cells. [Related pubchem assays (depositor defined):AID2717, AID2721]; type: functional; details: Homo sapiens
# [8] = ADAM10 inhibitors, peptide cleavage, dose response, biochemical, QFRET (AID 743254);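 also: ADAM10 enzyme with the DM2 quenched FRET peptide as substrate; EDANS fluorescence gain as the protease cuts the substrate; inhibitor potency against ADAM10 proteolytic activity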
# [9] = target: Disintegrin and metalloproteinase domain-containing protein 17 (Homo sapiens, UniProt P78536); assay: ADAM17 protease inhibitors, dose response, counter-screen for ADAM10 exosite inhibitor project, biochemical, quenched FRET substrate (AID 743253)
# [10] = target: T2, Galanin receptor type 3 (Homo sapiens, UniProt O60755); assay: Fluorescence-based cell-based primary high throughput dose response assay to identify antagonists of the Galanin Receptor 3 (GalR3).; type: functional
# T2 sequence (O60755 whole entry): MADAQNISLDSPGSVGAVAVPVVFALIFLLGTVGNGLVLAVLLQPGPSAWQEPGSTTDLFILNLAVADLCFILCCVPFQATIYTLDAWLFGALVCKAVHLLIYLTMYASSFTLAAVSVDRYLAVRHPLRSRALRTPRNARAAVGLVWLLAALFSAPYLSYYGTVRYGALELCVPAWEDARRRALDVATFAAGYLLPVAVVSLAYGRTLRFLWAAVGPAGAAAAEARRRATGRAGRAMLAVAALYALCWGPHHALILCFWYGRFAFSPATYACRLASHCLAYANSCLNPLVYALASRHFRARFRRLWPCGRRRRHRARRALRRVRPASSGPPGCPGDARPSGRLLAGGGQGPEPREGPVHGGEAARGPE
# [11] = cells; type: functional, cell-based; details: HEK-CNG
# [12] = target: COUP transcription factor 2 (Homo sapiens, UniProt P24468); assay: Luminescence-based cell-based high throughput dose response assay to identify inhibitors of COUP-TFII (NR2F2).; type: functional;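 also: HEK293 cells transiently cotransfected with COUP-TFII expression vector and reporter; luciferase reporter luminescence driven by COUP-TFII from the pX2-168 reporter plasmid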
# [13] = target: fMet-Leu-Phe receptor (Homo sapiens, UniProt P21462); assay: FPR ligands, dose response (AID 519); type: functional
# [14] = target: Prothrombin (Homo sapiens, UniProt P00734); assay: Thrombin 1536 HTS Dose Response Confirmation. [Related pubchem assays: 1046 (Thrombin 1536 HTS; hits were confirmed in this assay)]; type: functional
# [15] = target: Protein Tat (Human immunodeficiency virus type 1 group M subtype B (isolate HXB2)(HIV-1), UniProt P04608); type: functional;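 also: tat binding to TAR RNA read out by fluorescence polarization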
# [16] = target: Major prion protein (Homo sapiens, UniProt P04156); type: functional, cell-based
# [17] = cells
# [18] = NIH-3T3 fibroblast cytotoxicity, dose response, cytotoxicity control, cell-based, fluorescence, Alamar Blue, secondary assay (AID 2327); type: functional;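 also: NIH-3T3 mouse fibroblasts cultured with fluconazole at 8 µg/mL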
# [19] = C. albicans growth with fluconazole, confirmation, fluorescence, retest (AID 2467); type: functional, cell-based
# [20] = inhibitors of intracellular T. cruzi replication, confirmation, NIH3T3 host cells, beta-gal luminescence (AID 2044); type: functional, cell-based;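 also: intracellular parasites grown in NIH/3T3 mouse fibroblasts as host cells; luminescent beta-galactosidase reporter signal from transgenic T. cruzi replicating inside host cells; inhibitors lower the luminescence signal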
# [21] = cytotoxicity toward NIH3T3 fibroblasts, dose response, counter-screen, cell-based, ATP luminescence, mouse fibroblasts (AID 2010); type: functional;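 also: cells exposed to compound for about 90 hours before reading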
# [22] = target: Induced myeloid leukemia cell differentiation protein Mcl-1 (Homo sapiens, UniProt Q07820); type: functional
# [23] = target: T3, Carboxy-terminal domain RNA polymerase II polypeptide A small phosphatase 1 (Homo sapiens, UniProt Q9GZU7); assay: inhibitors of CTDSP1, concentration-response testing, biochemical assay, absorbance-based, actives from ultra-high-throughput screening (AID 540297); type: functional
# T3 sequence (Q9GZU7 whole entry): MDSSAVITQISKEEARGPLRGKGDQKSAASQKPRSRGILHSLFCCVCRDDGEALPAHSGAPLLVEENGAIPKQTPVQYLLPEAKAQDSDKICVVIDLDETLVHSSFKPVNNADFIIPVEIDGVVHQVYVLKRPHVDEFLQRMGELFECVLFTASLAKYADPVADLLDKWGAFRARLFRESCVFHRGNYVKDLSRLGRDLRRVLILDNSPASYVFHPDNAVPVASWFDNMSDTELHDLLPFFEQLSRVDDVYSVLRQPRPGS
# [24] = target: T4, Probable nicotinate-nucleotide adenylyltransferase (Staphylococcus aureus (strain N315), UniProt P65502); type: functional, Staphylococcus aureus subsp. aureus N315;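 as to IC50 Mean: confirmatory dose-response retesting of NadD inhibitor hits first found in an ultra-high-throughput screen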
# [25] = target: T4, Probable nicotinate-nucleotide adenylyltransferase; type: functional, Staphylococcus aureus subsp. aureus N315; details: read-out: IC50_Mean
# [26] = Luminescence-based cell-based high throughput dose response assay to identify activators of the DAF-12 from the parasite S. stercoralis (ssDAF-12).; type: functional
# 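For AC50 in this document: cells exposed to compound for roughly 70 hours or longer before luminescence read.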
compound,measurement,setting,value
CC1CCCCN1C(=O)Cn1c(=O)oc2ccccc21 (centres undefined),IC50,[1],> 109 µM (inactive)
same,IC50,[2],> 83.3 µM (inactive)
CC(C)C[C@H](NC(=O)c1[nH]cnc1C(=O)NCC(=O)OCc1ccccc1)C(=O)OCc1ccccc1,EC50,[3],> 29.9 µM (inactive)
same,IC50,[4],4.32 µM (active)
same,IC50,[5],> 29.9 µM (inactive)
same,EC50,[6],> 29.9 µM (inactive)
COc1ccccc1Nc1ccc(NC(=O)c2cccc([N+](=O)[O-])c2C)cc1,AC50,[7],3.32 µM (active)
same,IC50,[8],15.4 µM (inactive)
same,IC50,[9],> 69.5 µM (inactive)
CC(C)c1ccc(CN2CCN(C(=O)CSc3nnnn3C3CC3)CC2)cc1,IC50,[10],1.34 µM (active)
same,EC50,[11],> 29.9 µM (inactive)
same,IC50,[12],8.28 µM (active)
Cc1cc(N2C(=O)C(O)=C(C(=O)c3ccco3)C2c2cccnc2)no1 (centres undefined),Ki,[13],> 66.7 µM (inactive)
CN1C(=O)/C(=C2\SC(=S)N(C(CCC(=O)O)C(=O)O)C2=O)c2ccccc21 (centres undefined),IC50,[14],> 50 µM (not active)
same,Ki,[13],> 66.7 µM (inactive)
Cc1cc(-c2csc(NC(=O)c3cc4ccccc4o3)n2)c(C)n1C,IC50,[15],> 100 µM (active)
O=C(COc1ccc2ccccc2c1Br)Nc1ccncc1,IC50,[16],10.4 µM (inactive)
same,IC50,[17],> 138 µM (inactive)
O=C(NNc1ccccc1)C(=O)NNS(=O)(=O)c1ccc(CCCl)cc1,EC50,[18],2.67 µM (inconclusive)
same,EC50,[19],> 38 µM (not active)
same,EC50,[20],2 µM (active)
same,EC50,[21],3.48 µM (active)
same,IC50,[8],23.4 µM (inactive)
same,IC50,[9],27 µM (inactive)
Cc1csc(NC(=O)c2cc(-c3ccco3)nc3ccccc23)n1,IC50,[22],4.03 µM (active)
same,IC50,[23],4.76 µM (active)
same,IC50,[24],9.45 µM (active)
same,IC50,[25],18.4 µM (active)
same,IC50,[26],> 67.5 µM (inactive)
